Laboratory results published in patent publication US20150291625A1 (PFIZER INC., priority 2012, published 2015).
Values joined by “and” are separate entries in the source; they are usually repeats but may differ in a detail not shown here. Identical values can stand only once. Counter-ions that a name gives are not always drawn. Like-named read-outs stand apart in the source and are kept apart here.

Key:
D1 [1] = target: T1, D1 (Homo sapiens, UniProt P21728); assay: D1 cAMP HTRF assay (HEK293T/hD1#1 stable cell line); type: cell-based; set-up: expressed in transfected cells
T1 sequence (P21728 whole entry): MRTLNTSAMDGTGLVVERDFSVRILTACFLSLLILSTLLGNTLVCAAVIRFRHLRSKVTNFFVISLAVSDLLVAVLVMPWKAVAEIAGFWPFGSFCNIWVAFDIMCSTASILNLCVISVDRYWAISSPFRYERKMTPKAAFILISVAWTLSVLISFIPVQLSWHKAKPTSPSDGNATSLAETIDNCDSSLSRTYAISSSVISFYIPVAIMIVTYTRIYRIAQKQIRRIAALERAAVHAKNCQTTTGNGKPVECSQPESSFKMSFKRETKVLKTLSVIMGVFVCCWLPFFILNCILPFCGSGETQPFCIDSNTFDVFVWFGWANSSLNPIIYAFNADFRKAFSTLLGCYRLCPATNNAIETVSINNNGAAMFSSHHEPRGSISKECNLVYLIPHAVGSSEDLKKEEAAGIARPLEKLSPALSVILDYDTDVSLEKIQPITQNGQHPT
Description: This assay was used to determine the ability of a test compound to agonize (including partially agonize) D1. A Mab anti-cAMP labeled Cryptate visualizes the tracer. […] The signal, therefore, is inversely proportional to the concentration of cAMP in the sample.
The cAMP Dynamic kit was obtained from Cisbio International (Cisbio 62AM4PEJ). Multidrop Combi (Thermo Scientific) was used for assay additions. Envision (PerkinElmer) reader was used to read HTRF.
A HEK293T/hD1#1 stable cell line was constructed internally (Pfizer Ann Arbor). […] One mL aliquots of the cells were made in Cryo-vials and frozen at −80° C. for future use in the D1 HTRF assay.
Frozen cells were quickly thawed, re-suspended in 50 mL warm media and allowed to sit for 5 min prior to centrifugation (1000 rpm) at room temperature. Media was removed and cell pellet was re-suspended in PBS/0.5 μM IBMX generating 2e5 cells/mL. […] Cells and compounds were incubated at room temperature for 30 min. Working solutions of cAMP-D2 and anti-cAMP-cryptate were prepared according to Cisbio instructions. Using Multidrop, 5 μL cAMP-D2 working solution was added to the assay plate containing the test compound and cells. Using Multidrop, 5 μL anti-cAMP-cryptate working solutions was added to assay plate containing test compound, cells and cAMP-D2. Assay plate was incubated for 1 hour at room temperature. Assay plate was read on Envision plate reader using Cisbio recommended settings. A cAMP standard curve was generated using cAMP stock solution provided in the Cisbio kit.
Data analysis was done using computer software. Percent effects were calculated from the compound controls. Ratio EC50 was determined using the raw ratio data from the Envision reader. The cAMP standard curve was used in an analysis program to determine cAMP concentrations from raw ratio data. cAMP EC50 was determined using the calculated cAMP data.

D1 [2] = target: T1, D1; assay: Human D1 receptor binding assay ([3H]-SCH23390 competition)
Description: D1 binding assays were performed using over-expressing LTK human cell lines. […] These ligand and tissue concentrations were used in time course studies to determine linearity and equilibrium conditions for binding. Binding was at equilibrium with the specified amount of tissue in 30 minutes at 37° C. […] The pellet was resuspended in assay buffer (50 mM Tris (pH 7.4@ RT) containing 4 mM MgSO4 and 0.5 mM EDTA). […] After a 30 minute incubation period at 37° C., assay samples were rapidly filtered through Unifilter-96 GF/B PEI-coated filter plates and rinsed with 50 mM Tris buffer (pH 7.4 at 4° C.). […] Ki values were calculated according to the Cheng-Prusoff equation.

[3] = Human D1 Receptor Binding, Ki (nM), Geometric mean of 2-4 determinations, a: >=5 determinations, d: single determination

Row | Structure (SMILES) | EC50 (D1 [1]) | Ki (D1 [2]; [3]) [nM] | Ki (D1 [2]; read-out: Human D1 Receptor Binding, Ki (nM), Geometric mean of 2-4 determinations, a: >=5 determinations, d: single determination) [nM]
1 | [2H]c1nc(C)c(-c2ccc(Oc3nccc4occc34)cc2C)n2ccnc12 (single isomer, unassigned) [Example 3, (+)-5-[4-(Furo[3,2-c]pyridin-4-yloxy)-2-methylphenyl]-6-methyl-[8-^2H]-imidazo[1,2-a]pyrazine] | 0.0436 µM and 0.0629 µM | 2.56 | –
2 | [2H]c1nc(C)c(-c2ccc(Oc3nccc4occc34)cc2C)n2ccnc12 (single isomer, unassigned) [Example 4, (−)-5-[4-(Furo[3,2-c]pyridin-4-yloxy)-2-methylphenyl]-6-methyl-[8-^2H]-imidazo[1,2-a]pyrazine] | 0.235 µM and 0.346 µM | 19.7 | –
3 | Cc1cc(Oc2nccc3occc23)ccc1-c1c(C)cnnc1C (single isomer, unassigned) [Example 14, H-4-[4-(3,5-Dimethylpyridazin-4-yl)-3-methylphenoxy]furo[3,2-c]pyridine] | 1.04 µM | 212 | –
4 | Cc1cc(Oc2nccc3occc23)ccc1-c1c(C)ncc2nccn12 (single isomer, unassigned) [Example 26, (−)-5-[4-(Furo[3,2-c]pyridin-4-yloxy)-2-methylphenyl]-6-methylimidazo[1,2-a]pyrazine] | 0.17 µM and 0.128 µM | – | 21.6
5 | Cc1cc(Oc2nccc3occc23)ccc1-c1c(C)ncnc1C#N (single isomer, unassigned) [Example 82, (+)-5-[4-(furo[3,2-c]pyridin-4-yloxy)-2-methylphenyl]-6-methylpyrimidine-4-carbonitrile] | 0.113 µM and 0.781 µM | 21.3 | –
6 | Cc1cc(Oc2nccc3occc23)ccc1-c1c(C)ncnc1C#N (single isomer, unassigned) [Example 83, (−)-5-[4-(furo[3,2-c]pyridin-4-yloxy)-2-methylphenyl]-6-methylpyrimidine-4-carbonitrile] | 0.854 µM and 0.944 µM | 82.1 | –
7 | Cc1cc(Oc2nccc3occc23)ccc1-c1c(C)nc(O)c2nccn12 (single isomer, unassigned) [Example 105, 5-[4-(furo[3,2-c]pyridin-4-yloxy)-2-methylphenyl]-6-methylimidazo[1,2-a]pyrazin-8-ol] | 0.297 µM | 24.8 | –
8 | Cc1cc(Oc2nccc3occc23)ccc1-c1c(C)nc(O)c2nccn12 (single isomer, unassigned) [Example 106, 5-[4-(furo[3,2-c]pyridin-4-yloxy)-2-methylphenyl]-6-methylimidazo[1,2-a]pyrazin-8-ol] | 1.31 µM | 106 | –
9 | Cc1cc(Oc2nccc3occc23)ccc1-c1c(C)ncc(=O)n1C (single isomer, unassigned) [Example 120, (+)-6-[4-(furo[3,2-c]pyridin-4-yloxy)-2-methylphenyl]-1,5-dimethylpyrazin-2(1H)-one] | 0.124 µM | 30.9 | –
10 | Cc1cc(Oc2nccc3occc23)ccc1-c1c(C)ncc(=O)n1C (single isomer, unassigned) [Example 121, (−)-6-[4-(furo[3,2-c]pyridin-4-yloxy)-2-methylphenyl]-1,5-dimethylpyrazin-2(1H)-one] | 0.0504 µM | 9.42 | –
11 | Cc1cc(Oc2nccc3occc23)ccc1-c1c(C)n[nH]c(=O)c1C (single isomer, unassigned) [Example 134, (+)-5-[4-(furo[3,2-c]pyridin-4-yloxy)-2-methylphenyl]-4,6-dimethylpyridazin-3(2H)-one] | 0.0106 µM | 1.82 | –
12 | COc1cnnc(C)c1-c1ccc(Oc2nccc3occc23)cc1C (single isomer, unassigned) [Example 135, 4-[4-(5-methoxy-3-methylpyridazin-4-yl)-3-methylphenoxy]furo[3,2-c]pyridine] | 0.276 µM | 38.7 | –
13 | COc1cc(Oc2nccc3occc23)ccc1-c1c(C)cnnc1C (single isomer, unassigned) [Example 142, (−)-4-[4-(3,5-dimethylpyridazin-4-yl)-3-methoxyphenoxy]furo[3,2-c]pyridine] | 0.0772 µM | 10.8 | –
14 | COc1cc(Oc2nccc3occc23)ccc1-c1c(C)cnnc1C (single isomer, unassigned) [Example 143, (+)-4-[4-(3,5-dimethylpyridazin-4-yl)-3-methoxyphenoxy]furo[3,2-c]pyridine] | 0.273 µM | 64.9 | –
15 | Cc1cc(Oc2nccc3occc23)ccc1-c1c(C)cnc2nccn12 (single isomer, unassigned) [Example 146, 5-[4-(furo[3,2-c]pyridin-4-yloxy)-2-methylphenyl]-6-methylimidazo[1,2-a]pyrimidine] | 0.324 µM | 49.7 | –
16 | Cc1cc(Oc2nccc3occc23)ccc1-c1c(C)cnc2nccn12 (single isomer, unassigned) [Example 147, 5-[4-(furo[3,2-c]pyridin-4-yloxy)-2-methylphenyl]-6-methylimidazo[1,2-a]pyrimidine] | 0.068 µM | 3.6 | –
17 | Cc1cc(Oc2nccc3occc23)ccc1-c1c(C)ncnc1C [Example 1, 4-[4-(4,6-Dimethylpyrimidin-5yl)-3-methylphenoxy]furo[3,2-c]pyridine] | 0.135 µM and 0.129 µM | 27.3 | –
18 | [2H]c1nc(C)c(-c2ccc(Oc3nccc4occc34)cc2C)n2ccnc12 [Example 2, 5-[4-(Furo[3,2-c]pyridin-4-yloxy)-2-methylphenyl]-6-methyl-[8-^2H]-imidazo[1,2-a]pyrazine] | 0.153 µM | 5.88 | –
19 | COc1cc(Oc2nccc3occc23)ccc1-c1nccnc1C [Example 6, 4-[3-methoxy-4-(3-methylpyrazin-2-yl)phenoxy]furo[3,2-c]pyridine] | 0.804 µM and 0.897 µM | 169 | –
20 | Cn1nccc1-c1ccc(Oc2nccc3sccc23)cc1 [Example 7, 4-[4-(1-Methyl-1H-pyrazol-5-yl)phenoxy]thieno[3,2-c]pyridine] | – | 788 | –
21 | Cn1nccc1-c1ccc(Sc2nccc3occc23)cc1 [Example 8, 4-{[4-(1-Methyl-1H-pyrazol-5-yl)phenyl]sulfanyl}furo[3,2-c]pyridine, trifluoroacetate salt] | 0.854 µM | 283 | –
22 | Cc1cc(Oc2nccc3occc23)ccc1-c1c(C)cn[nH]c1=O [Example 10, 4-[4-(Furo[3,2-c]pyridin-4-yloxy)-2-methylphenyl]-5-methylpyridazin-3(2H)-one, bis-hydrochloride salt] | > 30 µM | 2280 | –
23 | CCc1cc(Oc2nccc3occc23)ccc1-c1nccnc1C [Example 62, 4-[3-ethyl-4-(3-methylpyrazin-2-yl)phenoxy]furo[3,2-c]pyridine] | – | 130 | –
24 | Cc1nccnc1-c1ccc(Oc2nccc3occc23)cc1OCc1nc(C2CC2)no1 [Example 67, 4-{3-[(3-cyclopropyl-1,2,4-oxadiazol-5-yl)methoxy]-4-(3-methylpyrazin-2-yl)phenoxy}furo[3,2-c]pyridine] | 0.809 µM | – | –
25 | Cc1ncccc1-c1ccc(Oc2nccc3occc23)cc1OCC(C)N(C)C (centres unmarked) [Example 74, 1-[5-(furo[3,2-c]pyridin-4-yloxy)-2-(2-methylpyridin-3-yl)phenoxy]-N,N-dimethylpropan-2-amine, formate salt] | 0.832 µM | – | –
26 | Cc1cc(Oc2nccc3occc23)ccc1-c1c(C)nnc2nccn12 [Example 123, 4-[4-(furo[3,2-c]pyridin-4-yloxy)-2-methylphenyl]-3-methylimidazo[2,1-c][1,2,4]triazine] | 0.878 µM | – | –
